Laboratory results from patent US11420975B2, “Substituted imidazo[1,5-a]pyrazines as Bruton's tyrosine kinase inhibitors” (TRANSTHERA SCIENCES (NANJING), INC., priority 2018, dated 2022).

Experiments:
BTK(wt) = BTK(wt) (Homo sapiens (Human), UniProt Q06187); test: In vitro inhibitory activity against BTK(wt) enzyme (33P-ATP filter binding); assay type: biochemical; conditions: class symbols
Experimental: (§1) The substrate solution was prepared by adding the substrate poly(Glu, Tyr) sodium salt (Sigma Aldrich, St. Louis, Mo.) to the substrate reaction buffer (20 mM Hepes (pH 7.5), 10 mM MgCl2, 1 mM EGTA, 0.02% Brij35, 0.02 mg/mL BSA, 0.1 mM Na3VO4, 2 mM DTT and 1% DMSO) (final substrate concentration in the reaction solution was 0.2 μM). Test compound was formulated into stock solutions at 10 mM concentration with 100% DMSO, and 3-fold serial dilution for 10 doses was performed in a 384-well cyclic olefin copolymer LDV microplate. […] Test compound in 100% DMSO was then added to the kinase reaction mixture by acoustic liquid transfer technology (Echo 550; nanoliter range) (Labcyte Inc, Sunnyvale, Calif.) and incubated for 20 min at room temperature. 33P-ATP (specific activity 10 μCi/μL) was added to the reaction mixture to initiate the reaction, followed by incubation at room temperature for 2 h. A small portion of the reaction mixture was dropped onto P-81 ion exchange filter paper (Whatman). After washing the unbound phosphate from the filter paper with 0.75% phosphate buffer (three times) and drying, the remaining radioactivity on the filter paper was measured. The kinase activity was expressed as the percentage of the remaining kinase activity in the test sample to the kinase activity in the vehicle (dimethyl sulfoxide) blank control. IC50 values were calculated by curve fitting the data obtained using Prism (GraphPad Software).

BTK(C481S) = BTK(C481S) (Homo sapiens (Human), UniProt Q06187, C481S); test: In vitro inhibitory activity against BTK(C481S) enzyme (33P-ATP filter binding); assay type: biochemical; conditions: class symbols; read-out: IC50 BTK(C48IS)
Experimental: as §1

Chain of BTK(C481S) (Q06187 whole entry C481S): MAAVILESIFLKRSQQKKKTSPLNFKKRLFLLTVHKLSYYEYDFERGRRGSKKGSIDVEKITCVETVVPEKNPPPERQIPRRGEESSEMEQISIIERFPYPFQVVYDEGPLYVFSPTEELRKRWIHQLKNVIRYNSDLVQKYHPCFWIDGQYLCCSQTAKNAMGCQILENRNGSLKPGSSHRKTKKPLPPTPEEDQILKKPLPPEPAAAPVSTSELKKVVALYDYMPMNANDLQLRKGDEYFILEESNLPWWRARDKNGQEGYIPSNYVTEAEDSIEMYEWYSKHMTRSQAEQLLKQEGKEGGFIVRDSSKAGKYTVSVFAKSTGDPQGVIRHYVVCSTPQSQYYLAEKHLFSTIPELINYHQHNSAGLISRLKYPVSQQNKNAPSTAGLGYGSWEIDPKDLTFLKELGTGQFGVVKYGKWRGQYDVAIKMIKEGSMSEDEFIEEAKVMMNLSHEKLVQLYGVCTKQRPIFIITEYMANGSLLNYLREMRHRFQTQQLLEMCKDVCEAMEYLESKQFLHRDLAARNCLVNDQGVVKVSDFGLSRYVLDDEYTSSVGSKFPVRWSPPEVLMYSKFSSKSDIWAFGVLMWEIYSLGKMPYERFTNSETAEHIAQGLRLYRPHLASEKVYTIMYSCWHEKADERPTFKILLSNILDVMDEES
Chain of BTK(wt) (Q06187 whole entry): as the sequence (Q06187 whole entry C481S) above, with S481C counted along it

IC50 (BTK(wt))	IC50 (BTK(C481S))	SMILES
1 to 10 nM	1 to 10 nM	COCCC(=O)NC12CCC(n3cc(-c4ccc(C(=O)Nc5cc(C(F)(F)F)ccn5)cc4)c4c(N)ncnc43)(CC1)C2 [Compound B-6-3, 4-(4-amino-7-(4-(3-methoxypropanamido)bicyclo[2.2.1]heptan-1-yl)-7H-pyrrolo[2,3-d]pyrimidin-5-yl)-N-(4-(trifluoromethyl)pyridin-2-yl)benzamide]
0.1 to 1 nM	0.1 to 1 nM	CC#CC(=O)NC12CCC(c3nc(-c4ccc(C(=O)Nc5cc(C(F)(F)F)ccn5)cc4)c4c(N)nccn34)(CC1)C2 [Compound A-7-3, 4-(8-amino-3-(4-(but-2-ynamido)bicyclo[2.2.1]heptan-1-yl)imidazo[1,5-a]pyrazin-1-yl)-N-(4-(trifluoromethyl)pyridin-2-yl)benzamide]
1 to 10 nM	0.1 to 1 nM	CC#CC(=O)NC12CCC(c3nc(-c4ccc(Oc5ccccc5)cc4)c4c(N)nccn34)(CC1)C2 [Compound A-7-14, N-(4-(8-amino-1-(4-phenoxyphenyl)imidazo[1,5-a]pyrazin-3-yl)bicyclo[2.2.1]heptan-1-yl)but-2-ynamide]
1 to 10 nM	0.1 to 1 nM	N#CC1(C(=O)NC23CCC(c4nc(-c5ccc(C(=O)Nc6cc(C(F)(F)F)ccn6)cc5)c5c(N)nccn45)(CC2)C3)CC1 [Compound A-10-12, 4-(8-amino-3-(4-(1-cyanocyclopropanecarboxamido)bicyclo[2.2.1]heptan-1-yl)imidazo[1,5-a]pyrazin-1-yl)-N-(4-(trifluoromethyl)pyridin-2-yl)benzamide]
1 to 10 nM	0.1 to 1 nM	Nc1nccn2c(C34CCC(NC(=O)C5CCCO5)(CC3)C4)nc(-c3ccc(C(=O)Nc4cc(C(F)(F)F)ccn4)cc3)c12 (stereo not drawn) [Compound A-10-11, N-(4-(8-amino-1-(4-((4-(trifluoromethyl)pyridin-2-yl)carbamoyl)phenyl)imidazo[1,5-a]pyrazin-3-yl)bicyclo[2.2.1]heptan-1-yl)tetrahydrofuran-2-carboxamide]
10 to 50 nM	1 to 10 nM	COc1ccccc1C(=O)NC12CCC(c3nc(-c4ccc(C(=O)Nc5cc(C(F)(F)F)ccn5)cc4)c4c(N)nccn34)(CC1)C2 [Compound A-10-20, N-(4-(8-amino-1-(4-((4-(trifluoromethyl)pyridin-2-yl)carbamoyl)phenyl)imidazo[1,5-a]pyrazin-3-yl)bicyclo[2.2.1]heptan-1-yl)-2-methoxybenzamide]
10 to 50 nM	1 to 10 nM	Nc1nccn2c(C34CCC(NC(=O)c5ccccc5)(CC3)C4)nc(-c3ccc(C(=O)Nc4cc(C(F)(F)F)ccn4)cc3)c12 [Compound A-10-17, 4-(8-amino-3-(4-benzamidobicyclo[2.2.1]heptan-1-yl)imidazo[1,5-a]pyrazin-1-yl)-N-(4-(trifluoromethyl)pyridin-2-yl)benzamide]
10 to 50 nM	1 to 10 nM	COc1ccc(F)cc1C(=O)NCc1ccc(-c2nc(C34CCC(NC(=O)C(C)(C)O)(CC3)C4)n3ccnc(N)c23)cc1 [Compound A-16-1, N-(4-(8-amino-3-(4-(2-hydroxy-2-methylpropanamido)bicyclo[2.2.1]heptan-1-yl)imidazo[1,5-a]pyrazin-1-yl)benzyl)-5-fluoro-2-methoxybenzamide]
1 to 10 nM	1 to 10 nM	CC1(C(=O)NC23CCC(n4cc(-c5ccc(C(=O)Nc6cc(C(F)(F)F)ccn6)cc5)c5c(N)ncnc54)(CC2)C3)COC1 [Compound B-6-4, N-(4-(4-amino-5-(4-((4-(trifluoromethyl)pyridin-2-yl)carbamoyl)phenyl)-7H-pyrrolo[2,3-d]pyrimidin-7-yl)bicyclo[2.2.1]heptan-1-yl)-3-methyloxetane-3-carboxamide]
1 to 10 nM	0.1 to 1 nM	COCCC(=O)NC12CCC(c3nc(-c4ccc(Oc5ccccc5)cc4)c4c(N)nccn34)(CC1)C2 [Compound A-13-2, N-(4-(8-amino-1-(4-phenoxyphenyl)imidazo[1,5-a]pyrazin-3-yl)bicyclo[2.2.1]heptan-1-yl)-3-methoxypropanamide]
1 to 10 nM	0.1 to 1 nM	COC/C=C/C(=O)NC12CCC(c3nc(-c4ccc(C(=O)Nc5cc(C(F)(F)F)ccn5)cc4)c4c(N)nccn34)(CC1)C2 [Compound A-10-1, (E)-4-(8-amino-3-(4-(4-methoxybut-2-enamido)bicyclo[2.2.1]heptan-1-yl)imidazo[1,5-a]pyrazin-1-yl)-N-(4-(trifluoromethyl)pyridin-2-yl)benzamide]
10 to 50 nM	1 to 10 nM	CC(C)(O)C(=O)NC12CCC(n3cc(-c4ccc(C(=O)Nc5cc(C(F)(F)F)ccn5)cc4)c4c(N)ncnc43)(CC1)C2 [Compound B-6-2, 4-(4-amino-7-(4-(2-hydroxy-2-methylpropanamido)bicyclo[2.2.1]heptan-1-yl)-7H-pyrrolo[2,3-d]pyrimidin-5-yl)-N-(4-(trifluoromethyl)pyridin-2-yl)benzamide]
1 to 10 nM	1 to 10 nM	COc1ccc(F)cc1C(=O)NCc1ccc(-c2nc(C34CCC(NC(=O)C5(C)COC5)(CC3)C4)n3ccnc(N)c23)cc1 [Compound A-16-3, N-(4-(8-amino-1-(4-((5-fluoro-2-methoxybenzamido)methyl)phenyl)imidazo[1,5-a]pyrazin-3-yl)bicyclo[2.2.1]heptan-1-yl)-3-methyloxetane-3-carboxamide]
1 to 10 nM	0.1 to 1 nM	Nc1ncnc2c1n(-c1ccc(C(=O)Nc3cc(C(F)(F)F)ccn3)cc1)c(=O)n2C12CCC(NC(=O)CN3CCOCC3)(CC1)C2 [Compound C-7-2, 4-(6-amino-9-(4-(2-morpholinoacetamido)bicyclo[2.2.1]heptan-1-yl)-8-oxo-8,9-dihydro-7H-purin-7-yl)-N-(4-(trifluoromethyl)pyridin-2-yl)benzamide]
1 to 10 nM	1 to 10 nM	CC1(C(=O)NC23CCC(c4nc(-c5ccc(Oc6ccccc6)cc5)c5c(N)nccn45)(CC2)C3)COC1 [Compound A-13-3, N-(4-(8-amino-1-(4-phenoxyphenyl)imidazo[1,5-a]pyrazin-3-yl)bicyclo[2.2.1]heptan-1-yl)-3-methyloxetane-3-carboxamide]
